Source: patent US20170360726A1, “COMPOUNDS, COMPOSITIONS AND METHODS OF USE” (Aquinnah Pharmaceuticals, Inc., priority 2014, published 2017)
Read-outs that look alike come from different tables or passages of the source.

Key:
[1] = test system: Embryonic mouse hippocampal neurons transduced with TDP-43 EGFP; assay: Neuroprotection assay (dendrite length rescue); type: cell-based; conditions: average rescue total dendrite length; compound at 10 times the IC50, treated DIV7, 9, 11, fixed DIV12
Method: Example 4. Neuroprotection Assay
1× Hank's balanced salt solution (Ca—/Mg, 500 mL) and 10 mM HEPES, pH 7.25-7.3 (IM stock, 5 mL)
MEM (Earle salts+/Glutamine, 95 mL), FBS (to 2.5%, 2.5 mL), Pen/Strep (1×, 1 mL), glutamine (1×, 1 mL), and D-glucose (0.6% w/v, 0.6 g)
neurobasal media (96 mL), B27 supplement (2 mL), Pen/Strep (1 mL), and glutamine (1 mL).
Embryonic mouse hippocampal neurons were cultured according to Kaech, S. and Banker, G. (2006) Nat Protoc 1:2406-2415 and dissected at […] from CD1 mice. Once all the hippocampi were removed, they were placed in a 15 mL conical Falcon tube on ice and brought to a final volume of 4.5 mL with CMF dissection buffer. 0.5 mL of a 2.5% trypsin-EDTA solution was then added, and the mixture was incubated at 37° C. for 15 min. […] Neurons were traced and analyzed using NeuronJ.
Results of the neuroprotection assay for exemplary compounds of the invention are summarized in Table 1, wherein A represents an average rescue total dendrite length of >150%; B represents an average rescue total dendrite length of 100-149%; C represents an average rescue total dendrite length of 50-99%; D represents an average rescue total dendrite length of 0-49%; E represents an average rescue total dendrite length of <0%; and ND signifies that the average rescue total dendrite length was not determined.

[2] = test system: TDP-43 inclusions in PC12 cells stably expressing wild type (WT) TDP-43-GFP; assay: Dose response assay for TDP-43 inclusion inhibition; type: cell-based; conditions: Rattus norvegicus, PC-12
Method: Example 3. Dose Response Assay for TDP-43 Inhibition
Exemplary compounds of the invention were evaluated for efficacy in inhibiting TDP-43 inclusions using a dose response assay. Briefly, PC12 cells stably expressing wild type (WT) TDP-43-GFP were stressed with 15 μM to induce TDP-43 inclusions. The cells were then treated with exemplary compounds of the invention and the inhibitory effect on TDP-43 inclusions was observed using fluorescent microscopy. The ratio of cells with TDP-43 inclusions was calculated based on the total number of cells with detectable GFP expression. A 12-point dose response curve was generated, and the IC50 for each compound tested was determined.

[3] = inhibition of TDP-43 inclusions, PC12 cells expressing WT TDP-43-GFP, 12-point dose response, fluorescent microscopy, read-out: IC50

Row | IC50 [2, 3] [nM] | Structure (SMILES) | Average Additive Dendrite Length (%) [1] | IC50 [2] [nM]
1 | > 500 | CCc1cccc(C)c1NS(=O)(=O)c1ccccc1C(=O)N1CCCC1 [Compound 100, N-(2-ethyl-6-methylphenyl)-2-(pyrrolidine-1-carbonyl)-benzenesulfonamide] | C (C represents an average rescue total dendrite length of 50-99%) | –
2 | < 100 | CCc1cccc(C)c1NS(=O)(=O)c1cnccc1C(=O)N1CCCC1 [Compound 101, N-(2-ethyl-6-methylphenyl)-4-(pyrrolidine-1-carbonyl)pyridine-3-sulfonamide] | C (C represents an average rescue total dendrite length of 50-99%) | –
3 | – | CCc1cccc(C)c1NS(=O)(=O)c1cccnc1 [Compound 102, N-(2-ethyl-6-methylphenyl)pyridine-3-sulfonamide] | – | 101 to 250
